Usually melting point stands for the temperature, or range, at which the solid turns liquid.

This passage reports melting point results from US8466188B2, “Use of spiro-oxindole compounds as therapeutic agents” (Xenon Pharmaceuticals Inc., priority 2006, dated 2013).

`Cc1oncc1CN1C(=O)C2(COc3cc4c(cc32)OCO4)c2ccccc21` (stereo not shown) [Example 10.34, 1′-[(5-methylisoxazol-4-yl)methyl]spiro[furo[2,3-f][1,3]benzodioxole-7,3′indol]-2′(1′H)-one] showed a melting point of 159 to 161 °C. `O=C1N(CC2CCOCC2)c2ccccc2C12COc1cc3c(cc12)OCO3` (stereo not shown) [Example 10.35, 1′-(tetrahydro-2H-pyran-4-ylmethyl)spiro[furo[2,3-f][1,3]benzodioxole-7,3′-indol]-2′(1′H)-one] displayed a melting point of 142 to 144 °C.

In the case of `O=C1N(Cc2ccccc2OC(F)(F)F)c2ccccc2C12COc1cc3c(cc12)OCO3` (stereo not shown) [Example 10.36, 1′[2-(trifluoromethoxy)benzyl]spiro[furo[2,3-f][1,3]benzodioxole-7,3′-indol]-2′(1′H)-one], the melting point was 130 to 135 °C. As to `O=C1N(Cc2cccc(OC(F)(F)F)c2)c2ccccc2C12COc1cc3c(cc12)OCO3` (stereo not shown) [Example 10.37, 1′[3-(trifluoromethoxy)benzyl]spiro[furo[2,3-f][1,3]benzodioxole-7,3′-indol]-2′(1′H)-one], the melting point fell in the range of 88 to 91 °C.

As for `O=C1N(Cc2ccc(OC(F)(F)F)cc2)c2ccccc2C12COc1cc3c(cc12)OCO3` (stereo not shown) [Example 10.38, 1′[4-(trifluoromethoxy)benzyl]spiro[furo[2,3-f][1,3]benzodioxole-7,3′-indol]-2′(1′H)-one], the melting point was 99 to 101 °C. Turning to `CN1C(=O)C2(COc3cc4c(cc32)OCO4)c2ccccc21` (stereo not shown) [Example 10.39, 1′-methylspiro[furo[2,3-f][1,3]benzodioxole-7,3′-indol]-2′(1′H)-one], the melting point fell in the range of 142 to 144 °C. To `CCCN1C(=O)C2(COc3cc4c(cc32)OCO4)c2ccccc21` (stereo not shown) [Example 10.40, 1′-Propylspiro[furo[2,3-f][1,3]benzodioxole-7,3′-indol]-2′(1′H)-one] belongs 158 to 160 °C; to `CC(C)(C)OC(=O)N1CCC(CN2C(=O)C3(COc4cc5c(cc43)CCO5)c3ccccc32)CC1` (stereo not shown) [Example 10.43, tert-butyl 4-[(2′-oxo-5,6-dihydrospiro[benzo[1,2-b:5,4-b′]difuran-3,3′-indol]-1′(2′H)-yl)methyl]piperidine 1-carboxylate], 96 to 98 °C; to `COc1ccc(CN2C(=O)C3(COc4cc5c(cc43)CCO5)c3ccccc32)cc1` (stereo not shown) [Example 10.46, 1′-(4-methoxybenzyl)-5,6-dihydrospiro[benzo[1,2-b:5,4-b′]difuran-3,3′-indol]-2′(1′H)-one], 120 to 121 °C. Regarding `O=C1N(Cc2ccc(C(F)(F)F)o2)c2cccc(Br)c2C12COc1cc3c(cc12)CCO3` (stereo not shown) [Example 10.48, 4′-bromo-1′-{[5-(trifluoromethyl)-2-furyl]methyl}-5,6-dihydrospiro[benzo[1,2-b:5,4-b′]difuran-3,3′-indol]-2′(1′H)-one], the melting point fell in the range of 182 to 184 °C. The result for `Cc1noc(C)c1CN1C(=O)C2(COc3cc4c(cc32)OCO4)c2ccccc21` (stereo not shown) [Example 10.51, 1′-[(3,5-dimethylisoxazol-4-yl)methyl]spiro[furo[2,3-f][1,3]benzodioxole-7,3′-indol]-2′(1′H)-one] reads 165 to 167 °C. With `O=C1N(Cc2ccco2)c2ccccc2C12COc1cc3c(cc12)OCO3` (stereo not shown) [Example 10.52, 1′-(2-furylmethyl)spiro[furo[2,3-f][1,3]benzodioxole-7,3′-indol]-2′(1′H)-one], the melting point lay within 110 to 112 °C. Turning to `O=C1N(Cc2ccc(-c3cccc(Cl)c3)o2)c2ccccc2C12COc1cc3c(cc12)OCO3` (stereo not shown) [Example 10.56, 1′-{[5-(3-chlorophenyl)-2-furyl]methyl}spiro[furo[2,3-f][1,3]benzodioxole-7,3′-indol]-2′(1′H)-one], the melting point is 205 to 207 °C. Molecule `O=C1N(CCCCl)c2ccccc2C12COc1cc3c(cc12)OCO3` (stereo not shown) [Example 10.57, 1′-(3-chloropropyl)spiro[furo[2,3-f][1,3]benzodioxole-7,3′-indol]-2′(1′H)-one] had a melting point of 144 to 146 °C. `CC(C)c1nc(CN2C(=O)C3(COc4cc5c(cc43)OCO5)c3ccccc32)co1` (stereo not shown) [Example 10.58, 1′-[(2-isopropyl-1,3-oxazol-4-yl)methyl]spiro[furo[2,3-f][1,3]benzodioxole-7,3′-indol]-2′(1′H)-one] returned a melting point of 118 to 120 °C. As to `O=C1N(Cc2ccc(Cl)s2)c2ccc(F)cc2C12COc1cc3c(cc12)OCO3` (stereo not shown) [Example 10.61, 1′-[(5-chloro-2-thienyl)methyl]-5′-fluorospiro[furo[2,3-f][1,3]benzodioxole-7,3′-indol]-2′(1′H)-one], the melting point is 142 to 144 °C.

`O=C1N(Cc2ccc(Cl)o2)c2ccccc2C12COc1cc3c(cc12)OCO3` (stereo not shown) [Example 10.62, 1′-[(5-chloro-2-furyl)methyl]spiro[furo[2,3-f][1,3]benzodioxole-7,3′-indol]-2′(1′H)-one] returned a melting point of 148 to 150 °C.

For the molecule `CN1C(C)(C)CC(O)(CN2C(=O)C3(COc4cc5c(cc43)OCO5)c3ccccc32)CC1(C)C` (stereo not shown) [Example 10.63, 1′-[(4-hydroxy-1,2,2,6,6-pentamethylpiperidin-4-yl)methyl]spiro[furo[2,3-f][1,3]benzodioxole-7,3′-indol]-2′(1′H)-one], the melting point is 210 to 214 °C.

As to `O=C1N(Cc2ccc(-c3ccccc3Cl)o2)c2ccccc2C12COc1cc3c(cc12)OCO3` (stereo not shown) [Example 10.64, 1′-{[5-(2-chlorophenyl)-2-furyl]methyl}spiro[furo[2,3-f][1,3]benzodioxole-7,3′-indol]-2′(1′H)-one], the melting point was in the range of 148 to 150 °C.

Turning to `Cc1ccc(CN2C(=O)C3(COc4cc5c(cc43)OCO5)c3ccccc32)o1` (stereo not shown) [Example 10.65, 1′-[(5-methyl-2-furyl)methyl]spiro[furo[2,3-f][1,3]benzodioxole-7,3′-indol]-2′(1′H)-one], the melting point fell in the range of 117 to 119 °C.

For the molecule `O=C1N(Cc2ccc(Cl)s2)c2ccccc2C12COc1cc3c(cc12)OCO3` (stereo not shown) [Example 10.67, 1′-[(5-chloro-2-thienyl)methyl]spiro[furo[2,3-f][1,3]benzodioxole-7,3′-indol]-2′(1′H)-one], the melting point was 145 to 146 °C. In turn, `O=C1N(Cc2sc(C(F)(F)F)cc2O)c2ccccc2C12COc1cc3c(cc12)OCO3` (stereo not shown) [Example 10.68, 1′-{[3-hydroxy-5-(trifluoromethyl)-2-thienyl]methyl}spiro[furo[2,3-f][1,3]benzodioxole-7,3′-indol]-2′(1′H)-one] gave a melting point of 225 to 227 °C. As to `O=C1N(Cc2cnc(Cl)s2)c2ccccc2C12COc1cc3c(cc12)OCO3` (stereo not shown) [Example 10.70, 1′[(2-chloro-1,3-thiazol-5-yl)methyl]spiro[furo[2,3-f][1,3]benzodioxole-7,3′-indol]-2′(1′H)one], the melting point was 195 to 198 °C. In turn, `O=C1N(Cc2ccc(C(F)(F)F)o2)c2ccccc2C12COc1cc3c(cc12)OCC3` (stereo not shown) [Example 10.71, 1′-{[5-(trifluoromethyl)-2-furyl]methyl}-6,7-dihydrospiro[benzo[1,2-b:4,5-b′]difuran-3,3′-indol]-2′(1′H)-one] returned a melting point of 174 to 177 °C. As to `O=C1N(Cc2ccc(C(F)(F)F)s2)c2ccccc2C12COc1cc3c(cc12)OCO3` (stereo not shown) [Example 10.73, 1′-{[5-(trifluoromethyl)-2-thienyl]methyl}spiro[furo[2,3-f][1,3]benzodioxole-7,3′-indol]-2′(1′H)-one], the melting point lay in the range of 127 to 130 °C. With `COc1cc(C(F)(F)F)sc1CN1C(=O)C2(COc3cc4c(cc32)OCO4)c2ccccc21` (stereo not shown) [Example 10.74, 1′-{[3-methoxy-5-(trifluoromethyl)-2-thienyl]methyl}spiro[furo[2,3-f][1,3]benzodioxole-7,3′-indol]-2′(1′H)-one], the melting point lay within 178 to 180 °C.

For `Cc1cccc2c1C1(COc3cc4c(cc31)OCO4)C(=O)N2Cc1ccc(C(F)(F)F)o1` (stereo not shown) [Example 10.75, 4′-methyl-1′-{[5-(trifluoromethyl)-2-furyl]methyl}spiro[furo[2,3-f][1,3]benzodioxole-7,3′-indol]-2′(1′H)-one], the melting point was in the range of 117 to 119 °C. On to `Cc1ccc2c(c1)C1(COc3cc4c(cc31)OCO4)C(=O)N2Cc1ccc(C(F)(F)F)o1` (stereo not shown) [Example 10.76, 5′-methyl-1′-{[5-(trifluoromethyl)-2-furyl]methyl}spiro[furo[2,3-f][1,3]benzodioxole-7,3′-indol]-2′(1′H)-one], for which the melting point fell in the range of 96 to 98 °C. As to `N#Cc1ccc(CN2C(=O)C3(COc4cc5c(cc43)OCO5)c3ccccc32)o1` (stereo not shown) [Example 10.80, 5-[(2′-oxospiro[furo[2,3-f][1,3]benzodioxole-7,3′-indol]-1′(2′H)-yl)methyl]-2-furonitrile], the melting point lay in the range of 167 to 169 °C.

Take `CS(=O)(=O)c1ccc(CN2C(=O)C3(COc4cc5c(cc43)OCO5)c3ccccc32)o1` (stereo not shown) [Example 10.81, 1′-{[5-(methylsulfonyl)-2-furyl]methyl}spiro[furo[2,3-f][1,3]benzodioxole-7,3′-indol]-2′(1′H)-one]: the melting point was in the range of 177 to 179 °C. `O=C1N(Cc2ccc(=O)[nH]c2)c2ccccc2C12COc1cc3c(cc12)OCO3` (stereo not shown) [Example 10.82, 1′-[(6-oxo-1,6-dihydropyridin-3-yl)methyl]spiro[furo[2,3-f][1,3]benzodioxole-7,3′-indol]-2′(1′H)-one] had a melting point of 247 to 250 °C. Regarding `Cn1cc(CN2C(=O)C3(COc4cc5c(cc43)OCO5)c3ccccc32)ccc1=O` (stereo not shown) [Example 10.83, 1′-[(1-methyl-6-oxo-1,6-dihydropyridin-3-yl)methyl]spiro[furo[2,3-f][1,3]benzodioxole-7,3′-indol]-2′(1′H)-one], the melting point is 115 to 118 °C. `O=C1N(Cc2nnc(Cl)s2)c2ccccc2C12COc1cc3c(cc12)OCO3` (stereo not shown) [Example 10.85, 1′-[(5-chloro-1,3,4-thiadiazol-2-yl)methyl]spiro[furo[2,3-f][1,3]benzodioxole-7,3′-indol]-2′(1′H)-one] yielded a melting point of 194 to 197 °C. `O=C1N(CC2CCN(c3ccccn3)CC2)c2ccccc2C12COc1cc3c(cc12)OCO3` (stereo not shown) [Example 10.86, 1′-[(1-pyridin-2-ylpiperidin-4-yl)methyl]spiro[furo[2,3-f][1,3]benzodioxole-7,3′-indol]-2′(1′H)-one] had a melting point of 95 to 97 °C.
